Results reported in US8471061B2 (priority 2004, dated 2013).
Several values for one entry are separate records, joined by “and”; a condition that tells them apart may be missing. Identical values can stand only once. Like-named read-outs stand apart in the source and are kept apart here.

Experiments:
[1] = Stimulation test (sense of taste, solid put on the tongue); format: in vivo; design: key to sense of taste stimulation: 0: No stimulation is felt.; 1: There is a stimulation but weak.; 2: There is a strong stimulation; details: for sense of taste stimulation: 5 mg of solid on the tongue, one score per subject, five subjects
Method: Each of five subjects has evaluated the sense of taste of the 5-aminolevulinic acid phosphate obtained in Example 1, in accordance with the following criteria by directly putting 5 mg of its solid on the tongue.
• 0: No stimulation is felt. • 1: There is a stimulation but weak. • 2: There is a strong stimulation.
The sense of taste was evaluated in the same manner as in Example 6, except that 5 mg of solid of 5-aminolevulinic acid hydrochloride was used.

[2] = Test on the generation of silver chloride precipitation with silver nitrate; format: physicochemical; details: 0.5 g with 0.5 g of silver nitrate in 10 ml of ion exchange water, 5 minutes
Method: In 10 ml of ion exchange water, 0.5 g of 5-aminolevulinic acid phosphate and 0.5 g of silver nitrate were dissolved, the mixture was allowed to stand still for 5 minutes, and conditions of the liquid was observed. […] In this connection, 0.5 g of 5-aminolevulinic acid hydrochloride and 0.5 g of silver nitrate were dissolved in 10 ml of ion exchange water and allowed to stand still for 5 minutes, and conditions of the liquid was observed.
In 10 ml of ion exchange water, 0.5 g of 5-aminolevulinic acid nitrate and 0.5 g of silver nitrate were dissolved, the mixture was allowed to stand still for 5 minutes, and conditions of the liquid was observed.
In this connection, 0.5 g of 5-aminolevulinic acid hydrochloride and 0.5 g of silver nitrate were dissolved in 10 ml of ion exchange water and allowed to stand still for 5 minutes, and conditions of the liquid was observed.
In 10 ml of ion exchange water, 0.5 g of 5-aminolevulinic acid p-toluenesulfonate and 0.5 g of silver nitrate were dissolved, the mixture was allowed to stand still for 5 minutes, and conditions of the liquid was observed.

[3] = test system: Chlorella sp.; assay: Culturing of plankton; format: cell-based; details: 1 mM additive
Method: (§1) 5-Aminolevulinic acid nitrate was added, to a concentration of 1 mM (194 ppm), to 100 ml of a sterilized culture shown in Table 17 (components of the culture), and a Chlorella sp. was inoculated therein and cultured on a reciprocal shaker at 30° C. under aerobic and dark conditions to measure the amount of cells (OD 660).
as §1, with “acid hydrochloride” for “acid nitrate”, “mM (168” for “mM (194”, “of the” for “of a”, “and the” for “and a”
The Chlorella sp. was inoculated into 100 ml of the sterilized culture shown in Table 17 (components of the culture) and cultured on a reciprocal shaker at 30° C. under aerobic and dark conditions to measure the amount of cells (OD 660).

[4] = Acidity measurement of aqueous solutions with a pH meter; format: physicochemical; details: 1 to 1000 mM, 25° C., same concentration
Method: Aqueous 5-aminolevulinic acid phosphate solutions and aqueous 5-aminolevulinic acid hydrochloride solutions having a concentration of from 1 to 1000 mM were respectively prepared, and their acidity was measured at 25° C. using a pH meter.

[5] = test system: Salmonella typhimurium TA 1535; details: TA1535
Method: (§2) A test was carried out in accordance with the “Standard of Mutagenicity Tests Using Microorganisms” (Ministry of Labor Notification No. 77, 1988) (partial revision by Ministry of Labor Notification No. 67, 1997) and “Regarding the Tests Concerning Novel Chemical Substances and the like” (dated Nov. 21, 2003: Yaku-Shoku-Hatsu No. 1121002, 2003.11.13 Sei-Kyoku, No. 2, Kan-Ho-Ki-Hatsu No. 031121002). To 0.1 ml of a solution prepared by dissolving 5% (w/v) of 5-aminolevulinic acid phosphate in distilled water (Wako Pure Chemical Industries), 0.5 ml of 0.1 M sodium-phosphate buffer (pH 7.4) (0.5 ml S9 mix in the case of metabolism activation test) was added, and 0.1 ml of each test strain suspension (5 strains of histidine-less Salmonella typhimurium TA 100, TA 98, TA 1535 and TA 1537 and tryptophan-less Escherichia coli WP2 uvrA were used (Japan Bioassay Research Center)) was further added thereto, followed by pre-incubation at 37° C. for 20 minutes while shaking. After completion of the culturing, 2.0 ml of top agar kept at 45° C. in advance was added thereto and layered on a minimum glucose agar plate medium. In this case, 2 plates were arranged for each dosage. However, 3 plates were arranged for a solvent control (negative control). […] In the measurement, an inner area of about 80 mm in diameter of a plate of 86 mm in diameter (84 mm in inner diameter) was measured using an automatic colony analyzer (CA-11: manufactured by System Science), and calculated by carrying out area correction and counting loss correction using a personal computer. However, since reliability of the automatic colony analyzer is reduced when the number of colonies is 1,500 or more, 5 points in the plate were manually measured under the stereoscopic microscope to carry out area correction of the average value. A dosage setting test was carried out on 7 dosages diluted at a common ratio of 4, using a dosage of 5,000 μg/plate as the maximum which is the maximum dosage defined by the guideline.

[6] = test system: Salmonella typhimurium TA 1537; details: TA1537
Method: as §2

[7] = S9 Mix(−), 1250 μg/plate, Phosphate

Cl.NCC(=O)CCC(=O)O [5-aminolevulinic acid hydrochloride, reference compound]
sense of taste stimulation [1]: 2
generation of precipitate [2]: Generation of the precipitate was found
amount of cells: OD 660 nm ([3]; Culture time 0 day): 1.8
amount of cells: OD 660 nm ([3]; Culture time 1 day): 6.3
amount of cells: OD 660 nm ([3]; Culture time 2 day): 12.5
amount of cells: OD 660 nm ([3]; Culture time 3 day): 14.8

NCC(=O)CCC(=O)O.O=P(O)(O)O [5-aminolevulinic acid phosphate, 5-aminolevulinic Acid Phosphate]
acidity of aqueous solution (FIG. 1) [4]: lower than that of the aqueous 5-aminolevulinic acid hydrochloride solution
stimulation on the tongue in comparison with hydrochloride ([1]; 5 mg of solid): strong stimulation was not found
sense of taste stimulation [1]: 1
number of back mutation, mean (in parentheses) ([5]; S9 Mix(+), 313 μg/plate): (11) colonies/plate
number of back mutation, single plates ([5]; S9 Mix(+), 313 μg/plate, Phosphate): 11 colonies/plate and 10 colonies/plate
number of back mutation, mean (in parentheses) ([5]; S9 Mix(+), 625 μg/plate): (10) colonies/plate
number of back mutation, mean (in parentheses) ([5]; S9 Mix(+), 1250 μg/plate): (12) colonies/plate
number of back mutation, single plates ([5]; S9 Mix(+), 1250 μg/plate, Phosphate): 10 colonies/plate and 14 colonies/plate
number of back mutation, mean (in parentheses) ([5]; S9 Mix(+), 2500 μg/plate): (8) colonies/plate
number of back mutation, single plates ([5]; S9 Mix(+), 2500 μg/plate): 8 colonies/plate
number of back mutation, mean (in parentheses) ([5]; S9 Mix(+), 5000 μg/plate): (7) colonies/plate
number of back mutation, single plates ([5]; S9 Mix(+), 5000 μg/plate, Phosphate): 6 colonies/plate and 8 colonies/plate
number of back mutation, mean (in parentheses) ([5]; S9 Mix(−), 313 μg/plate): (10) colonies/plate
number of back mutation, single plates ([5]; S9 Mix(−), 313 μg/plate): 10 colonies/plate
number of back mutation, mean (in parentheses) ([5]; S9 Mix(−), 625 μg/plate): (10) colonies/plate
number of back mutation, mean (in parentheses) ([5]; S9 Mix(−), 1250 μg/plate): (10) colonies/plate
number of back mutation, single plates [5, 7]: 8 colonies/plate and 11 colonies/plate
number of back mutation, mean (in parentheses) ([5]; S9 Mix(−), 2500 μg/plate): (6) colonies/plate
number of back mutation, single plates ([5]; S9 Mix(−), 2500 μg/plate, Phosphate): 6 colonies/plate and 5 colonies/plate
number of back mutation, mean (in parentheses) ([5]; S9 Mix(−), 5000 μg/plate): (7) colonies/plate
number of back mutation, mean (in parentheses) ([6]; S9 Mix(+), 313 μg/plate): (5) colonies/plate
number of back mutation, mean (in parentheses) ([6]; S9 Mix(+), 625 μg/plate): (6) colonies/plate
number of back mutation, mean (in parentheses) ([6]; S9 Mix(+), 1250 μg/plate): (6) colonies/plate
number of back mutation, single plates ([6]; S9 Mix(+), 1250 μg/plate): 6 colonies/plate
number of back mutation, mean (in parentheses) ([6]; S9 Mix(+), 2500 μg/plate): (4) colonies/plate
number of back mutation, single plates ([6]; S9 Mix(+), 2500 μg/plate, Phosphate): 5 colonies/plate and 3 colonies/plate
number of back mutation, mean (in parentheses) ([6]; S9 Mix(+), 5000 μg/plate): (4) colonies/plate
number of back mutation, mean (in parentheses) ([6]; S9 Mix(−), 313 μg/plate): (2) colonies/plate
number of back mutation, mean (in parentheses) ([6]; S9 Mix(−), 625 μg/plate): (3) colonies/plate
number of back mutation, mean (in parentheses) ([6]; S9 Mix(−), 1250 μg/plate): (3) colonies/plate
number of back mutation, single plates [6, 7]: 4 colonies/plate and 2 colonies/plate
number of back mutation, mean (in parentheses) ([6]; S9 Mix(−), 2500 μg/plate): (2) colonies/plate
number of back mutation, single plates ([6]; S9 Mix(−), 2500 μg/plate): 2 colonies/plate
number of back mutation, mean (in parentheses) ([6]; S9 Mix(−), 5000 μg/plate): (3) colonies/plate
generation of precipitate [2]: Generation of the precipitate was not found
